In assay [1] the test system is C. difficile ATCC 43596. As to the kind of experiment: Broth microdilution MIC, anaerobic. To be noted: Clostridioides difficile, ATCC43596, 48h at 37°C, read-out: MIC regarding C. difficile ATCC 43596. It is filed as cell-based, Clostridium difficile.
The test system of assay [2] is C. perfringens DSM 756. The experiment in a line: microbe, parasite or virus in culture. It is filed as cell-based. The settings on record: Clostridium perfringens, DSM756, 48 h, read-out: MIC regarding C. perfringens DSM 756.
Assay [3] concerns C. difficile NC 13366. As to the kind of experiment: Broth microdilution MIC, anaerobic. It is filed as cell-based, Clostridium difficile. The settings on record: Clostridioides difficile, NC13366, 48h at 37°C, quinolone-resistant hypervirulent strain, read-out: MIC regarding C. difficile NC 13366.
Assay [4] relates to E. faecium H 7965. The experiment in a line: Broth microdilution MIC, aerobic Gram-positive bacteria. The settings on record: Enterococcus faecium, H7965, 48 h. (In broth dilution the organism is exposed to a series of concentrations in liquid medium.)
Assay [5] deals with E. faecium H 9070. The description is as above. To be noted: Enterococcus faecium, H9070, 48 h.
For assay [6], the system named is 209 diverse clinical isolates of C. difficile. As to the kind of experiment: CLSI agar dilution MIC, clinical isolates. It is filed as cell-based, Clostridium difficile. To be noted: Clostridioides difficile, 48 h. (In agar dilution, organisms are placed on agar that contains the substance at set levels.)
Assay [7] relates to S. aureus A-798 (MRSA). As to the kind of experiment: Broth microdilution MIC, aerobic Gram-positive bacteria. To be noted: Staphylococcus aureus, 48 h.
In assay [8] the test system is E. faecalis H 4060. The description is as above. To be noted: Enterococcus faecalis, H4060, 48 h.
Assay [9] relates to E. faecalis H 6897. Described as above. To be noted: Enterococcus faecalis, H6897, 48 h.
The subject of assay [10] is C. difficile ATCC 9689. As to the kind of experiment: Broth microdilution MIC, anaerobic. It is filed as cell-based, Clostridium difficile. To be noted: Clostridioides difficile, ATCC9689, 48h at 37°C, read-out: MIC regarding C. difficile ATCC 9689.
For assay [11], the system named is E. faecium A 949. As to the kind of experiment: Broth microdilution MIC, aerobic Gram-positive bacteria. To be noted: Enterococcus faecium, A949, 48 h.
Assay [12] concerns S. aureus ATCC 29213. Described as above. To be noted: Staphylococcus aureus, ATCC29213, 48 h.
In assay [13] the test system is E. faecalis ATCC 29212. The description is as above. To be noted: Enterococcus faecalis, ATCC29212, 48 h.
Assay [14] has as its system E. faecium L1 (LZD-R). The description is as above. To be noted: Enterococcus faecium, 48 h.
The subject of assay [15] is E. faecium ATCC 19434. The description is as above. To be noted: Enterococcus faecium, ATCC19434, 48 h.
Assay [16] relates to S. aureus S1 (LZD-R). The description is as above. The settings on record: Staphylococcus aureus, 48 h.
Assay [17] concerns E. faecium H 7966. The description is as above. To be noted: Enterococcus faecium, H7966, 48 h.
Assay [18] concerns E. faecium H 7969. The assay is described as above. The settings on record: Enterococcus faecium, H7969, 48 h.
Assay [19] has as its system E. faecalis H 7094. The assay is described as above. The settings on record: Enterococcus faecalis, H7094, 48 h.
For assay [20], the system named is E. faecium A 962. The description is as above. The settings on record: Enterococcus faecium, A962, 48 h.
The subject of assay [21] is E. faecalis H 6279. The description is as above. To be noted: Enterococcus faecalis, H6279, 48 h.
Assay [22] relates to E. faecium H 7937. The assay is described as above. To be noted: Enterococcus faecium, H7937, 48 h.
The test system of assay [23] is E. faecalis H 7460. The description is as above. The settings on record: Enterococcus faecalis, H7460, 48 h.
For assay [24], the system named is S. aureus ATCC 43300 (MRSA). The assay is described as above. To be noted: Staphylococcus aureus, 48 h.
The subject of assay [25] is C. difficile A-1050 (ATCC 43596). The experiment in a line: Spore formation at sub-MIC concentrations. It is filed as cell-based. The settings on record: 0.5x the MIC; 4 days anaerobic incubation at 37°C.
In assay [26] the test system is C. difficile strain NC 13366. It is filed as cell-based.
Assay [27] concerns C. difficile strain NC 13366. As to the kind of experiment: microbe, parasite or virus in culture. It is filed as cell-based.

In brackets after ≈: the same amount, converted by molar mass. Like-named read-outs stand apart in the source and are kept apart here.

For orientation: MIC90 means the lowest concentration that inhibits either 90% of growth or 90% of the strains tested, depending on the study.

In the case of `O=C(O)c1cn(C2CC2)c2nc(N3CCC(O)(COc4ccc(N5C[C@H](CO)OC5=O)cc4F)CC3)c(F)cc2c1=O` [Example 2, 1-cyclopropyl-6-fluoro-7-{4-[2-fluoro-4-((R)-5-hydroxymethyl-2-oxo-oxazolidin-3-yl)phenoxymethyl]-4-hydroxy-piperidin-1-yl}-4-oxo-1,4-dihydro-[1,8]naphthyridine-3-carboxylic acid], the MIC in [1] is 0.06 µg/mL (≈ 0.102 µM); in assay [2], at most 0.03 µg/mL; in assay [3], 0.03 µg/mL (≈ 0.0511 µM).

For `CC(=O)NC[C@H]1CN(c2ccc(N3CCOCC3)c(F)c2)C(=O)O1` [Linezolid], the MIC in [4] was 2 µg/mL (≈ 5.93 µM); in assay [1], 8 µg/mL (≈ 23.7 µM); in assay [5] it was 2 µg/mL (≈ 5.93 µM); in [7], 2 µg/mL (≈ 5.93 µM); in [8], 2 µg/mL (≈ 5.93 µM); in [9], 4 µg/mL (≈ 11.9 µM). The MIC in assay [2] worked out at 4 µg/mL (≈ 11.9 µM); in assay [10], 2 µg/mL (≈ 5.93 µM); in assay [11], 2 µg/mL (≈ 5.93 µM); in assay [12] it was 2 µg/mL (≈ 5.93 µM); in assay [13] it was 2 µg/mL (≈ 5.93 µM); in assay [3], 1 µg/mL (≈ 2.96 µM). Also, the MIC was over 32 µg/mL in [14]; 2 µg/mL (≈ 5.93 µM) in assay [15]; over 32 µg/mL in assay [16]; 1 µg/mL (≈ 2.96 µM) in [17]; 4 µg/mL (≈ 11.9 µM) in assay [18]; 4 µg/mL (≈ 11.9 µM) in assay [19]. Further, the MIC is 4 µg/mL (≈ 11.9 µM) in assay [20]; 2 µg/mL (≈ 5.93 µM) in assay [21]; 1 µg/mL (≈ 2.96 µM) in [22]; 16 µg/mL (≈ 47.4 µM) in [23]; 2 µg/mL (≈ 5.93 µM) in assay [24]. Besides, the MIC90 in assay [6] (209 clinical isolates of C. difficile, read-out: MIC90) was 8 µg/mL (≈ 23.7 µM).

Consider `Cc1ncc([N+](=O)[O-])n1CCO` [metronidazole], for which the “spores of total cell count” value in assay [25] is recorded as over 90%. In addition, the “de novo toxin A production” value in assay [26] (1 and 8 µg/ml, supernatants at day 5, high density stationary phase cultures) is recorded as “did not inhibit toxin A production under these conditions or did so only weakly”.

In the case of `CN[C@H](CC(C)C)C(=O)N[C@H]1C(=O)N[C@@H](CC(N)=O)C(=O)N[C@H]2C(=O)N[C@H]3C(=O)N[C@H](C(=O)N[C@H](C(=O)O)c4cc(O)cc(O)c4-c4cc3ccc4O)[C@H](O)c3ccc(c(Cl)c3)Oc3cc2cc(c3O[C@@H]2O[C@H](CO)[C@@H](O)[C@H](O)[C@H]2O[C@H]2C[C@](C)(N)[C@H](O)[C@H](C)O2)Oc2ccc(cc2Cl)[C@H]1O` [vancomycin], the MIC in [4] is over 32 µg/mL; in [5] it was over 32 µg/mL; in assay [7], 1 µg/mL (≈ 0.69 µM); in assay [8] it was over 32 µg/mL; in [9] it was over 32 µg/mL; in assay [11], over 32 µg/mL. Also, the MIC in [12] is 1 µg/mL (≈ 0.69 µM); in [13], 1 µg/mL (≈ 0.69 µM); in assay [14], 0.5 µg/mL (≈ 0.345 µM); in assay [15], 1 µg/mL (≈ 0.69 µM); in [16], 1 µg/mL (≈ 0.69 µM); in [17], over 32 µg/mL. Moreover, the MIC in [18], in assay [19], in assay [20], in [21], in assay [22] and in [23] was over 32 µg/mL in each case. In [24], this compound registered an MIC of 1 µg/mL (≈ 0.69 µM). Moreover, the MIC90 in assay [6] is 2 µg/mL (≈ 1.38 µM). Moreover, the “toxin B activities of the supernatants, reduction compared to the untreated control” value in [27] was “not reduced”. In addition, the inhibition at 8 µg/mL in assay [27] (Clostridioides difficile, NC13366, CHO, 120 h, read-out: toxin B activities of the supernatants, reduction compared to the untreated control) came out at 30%. In assay [25], the “spores of total cell count” value was over 90%. Besides, in [26], the “de novo toxin A production” value is “did not inhibit toxin A production under these conditions or did so only weakly”.

The values above are taken from patent publication EP2296651B1, “5-HYDROXYMETHYL-OXAZOLIDIN-2-ONE DERIVATIVES FOR TREATING BACTERIAL INTESTINAL DISEASES” (Actelion Pharmaceuticals Ltd., priority 2008, dated 2009).
